{"source": "patent EP4782444A1", "about": "“CRYSTAL FORM OF PYRIMIDINE ANILINE COMPOUND, PREPARATION METHOD, AND USE” (TYK Medicines, Inc., priority 2023, dated 2025)", "key": {"[1]": {"test": "Solid-state stability study (HPLC and XRPD analysis)", "format": "physicochemical"}, "[2]": {"details": "37 °C"}, "[3]": {"test": "physchem"}, "[4]": {"test": "Pharmacokinetic study in rats, single oral gavage", "details": "SD rats, 30 mpk", "description": "SD rats received a single oral gavage administration of citrate crystalline form I, mesylate crystalline form I, and free base crystalline form I, respectively. Blood samples were collected at various time points to determine drug concentrations in rat plasma post administration of tested substance and calculate PK-related parameters.\nThe prepared test sample solutions were analyzed by the analytical department of the present test facility using LC-MS/MS.\nAnimals were fasted (≥10 h) with free access to water from the day before dosing. On the test day, rats were weighed respectively, marked at the tail, and blank blood samples were collected before administration. Blood was collected via tail vein.\n0.1 mL of whole blood was collected into EDTA-Na2 anticoagulant tubes, inverted 3-4 times to mix well, centrifuged at 10,000 g, 4 °C for 5 min to separate plasma, and stored at - 80 °C until analysis. Blood was collected via tail vein.\nPlasma samples were analyzed by the analytical department of the test facility using LC-MS/MS."}, "[5]": {"system": "exon 20 insertion mutations of EGFR and HER2", "details": "reported clinical trial results; cited from earlier work"}, "[6]": {"details": "day 0 (baseline before storage), mean of 3 parallel experiments"}}, "note": "Like-named read-outs stand apart in the source and are kept apart here.", "data": [{"smiles": "C=CC(=O)Nc1cc(Nc2ncc(C(=O)OC(C)C)c(-c3cn(C)c4ccccc34)n2)c(OC)cc1N(C)[C@@H]1[C@@H]2CN(C)C[C@@H]21", "note": "[Maleate crystalline form II]", "values": [{"measurement": "Appearance", "setting": "[1]; 25°C/60%RH, day 3", "result": "Unchanged"}, {"measurement": "Crystalline Form", "setting": "[1]; 25°C/60%RH, day 3, XRPD", "result": "Unchanged"}, {"measurement": "Purity %", "setting": "[1]; 25°C/60%RH, day 3, open vial", "result": 98.68, "unit": "%"}, {"measurement": "Appearance", "setting": "[1]; 25°C/60%RH, day 7", "result": "Unchanged"}, {"measurement": "Crystalline Form", "setting": "[1]; 25°C/60%RH, day 7, XRPD", "result": "Unchanged"}, {"measurement": "Purity %", "setting": "[1]; 25°C/60%RH, day 7, open vial", "result": 98.66, "unit": "%"}, {"measurement": "Appearance", "setting": "[1]; 25°C/95±5%RH, day 3", "result": "Unchanged"}, {"measurement": "Crystalline Form", "setting": "[1]; 25°C/95±5%RH, day 3, XRPD", "result": "Unchanged"}, {"measurement": "Purity %", "setting": "[1]; 25°C/95±5%RH, day 3, open vial", "result": 98.66, "unit": "%"}, {"measurement": "Appearance", "setting": "[1]; 25°C/95±5%RH, day 7", "result": "Unchanged"}, {"measurement": "Crystalline Form", "setting": "[1]; 25°C/95±5%RH, day 7, XRPD", "result": "Changed"}, {"measurement": "Purity %", "setting": "[1]; 25°C/95±5%RH, day 7, open vial", "result": 98.67, "unit": "%"}, {"measurement": "Appearance", "setting": "[1]; 40°C/75%RH, day 3", "result": "Unchanged"}, {"measurement": "Crystalline Form", "setting": "[1]; 40°C/75%RH, day 3, XRPD", "result": "Unchanged"}, {"measurement": "Purity %", "setting": "[1]; 40°C/75%RH, day 3, open vial", "result": 98.67, "unit": "%"}, {"measurement": "Appearance", "setting": "[1]; 40°C/75%RH, day 7", "result": "Unchanged"}, {"measurement": "Crystalline Form", "setting": "[1]; 40°C/75%RH, day 7, XRPD", "result": "Unchanged"}, {"measurement": "Purity %", "setting": "[1]; 40°C/75%RH, day 7, open vial", "result": 98.64, "unit": "%"}, {"measurement": "Appearance", "setting": "[1]; 60 °C, day 3", "result": "Unchanged"}, {"measurement": "Crystalline Form", "setting": "[1]; 60 °C, day 3, XRPD", "result": "Unchanged"}, {"measurement": "Purity %", "setting": "[1]; 60 °C, day 3, open vial", "result": 98.66, "unit": "%"}, {"measurement": "Appearance", "setting": "[1]; 60 °C, day 7", "result": "Unchanged"}, {"measurement": "Crystalline Form", "setting": "[1]; 60 °C, day 7, XRPD", "result": "Unchanged"}, {"measurement": "Purity %", "setting": "[1]; 60 °C, day 7, open vial", "result": 98.68, "unit": "%"}, {"measurement": "Appearance", "setting": "[1]; 80 °C, day 1", "result": "Unchanged"}, {"measurement": "Crystalline Form", "setting": "[1]; 80 °C, day 1, XRPD", "result": "Unchanged"}, {"measurement": "Purity %", "setting": "[1]; 80 °C, day 1, open vial", "result": 98.77, "unit": "%"}, {"measurement": "Appearance", "setting": "[1]; 80 °C, day 3", "result": "Unchanged"}, {"measurement": "Crystalline Form", "setting": "[1]; 80 °C, day 3, XRPD", "result": "Unchanged"}, {"measurement": "Purity %", "setting": "[1]; 80 °C, day 3, open vial", "result": 98.66, "unit": "%"}, {"measurement": "Crystalline Form", "setting": "[1]; after 7 days, 25 °C /90±5%RH", "result": "transformed into an unstable hydrate of maleate"}, {"measurement": "Purity %", "setting": "[1]; [6]", "result": 98.83, "unit": "%"}, {"measurement": "changes under other conditions", "setting": "[1]; storage conditions other than 25 °C /90±5%RH", "result": "no significant changes were observed"}, {"measurement": "Solubility", "setting": "[2]; FaSSIF, 0.5 h, 30 min", "result": "> 5030", "unit": "µg/mL"}, {"measurement": "Solubility", "setting": "[2]; FaSSIF, 2 h, 120 min", "result": "> 5030", "unit": "µg/mL"}, {"measurement": "Solubility", "setting": "[2]; FaSSIF, 24 h, 1440 min", "result": 3450, "unit": "µg/mL"}, {"measurement": "Solubility", "setting": "[2]; FeSSIF, 0.5 h, 30 min", "result": "> 5010", "unit": "µg/mL"}, {"measurement": "Solubility", "setting": "[2]; FeSSIF, 2 h, 120 min", "result": "> 5010", "unit": "µg/mL"}, {"measurement": "Solubility", "setting": "[2]; FeSSIF, 24 h, 1440 min", "result": "> 5010", "unit": "µg/mL"}, {"measurement": "Solubility", "setting": "[2]; H2O, 0.5 h, 30 min", "result": 1640, "unit": "µg/mL"}, {"measurement": "Solubility", "setting": "[2]; H2O, 2 h, 120 min", "result": 1620, "unit": "µg/mL"}, {"measurement": "Solubility", "setting": "[2]; H2O, 24 h, 1440 min", "result": 1840, "unit": "µg/mL"}, {"measurement": "Solubility", "setting": "[2]; SGF, 0.5 h, 30 min", "result": "> 5010", "unit": "µg/mL"}, {"measurement": "Solubility", "setting": "[2]; SGF, 2 h, 120 min", "result": "> 5010", "unit": "µg/mL"}, {"measurement": "Solubility", "setting": "[2]; SGF, 24 h, 1440 min", "result": "> 5010", "unit": "µg/mL"}]}, {"smiles": "C=CC(=O)Nc1cc(Nc2ncc(C(=O)OC(C)C)c(-c3cn(C)c4ccccc34)n2)c(OC)cc1N(C)[C@@H]1[C@@H]2CN(C)C[C@@H]21", "note": "[Mesylate crystalline form I]", "values": [{"measurement": "Appearance", "setting": "[1]; 25°C/60%RH, day 3", "result": "Unchanged"}, {"measurement": "Crystalline Form", "setting": "[1]; 25°C/60%RH, day 3, XRPD", "result": "Unchanged"}, {"measurement": "Purity %", "setting": "[1]; 25°C/60%RH, day 3, open vial", "result": 98.19, "unit": "%"}, {"measurement": "Appearance", "setting": "[1]; 25°C/60%RH, day 7", "result": "Unchanged"}, {"measurement": "Crystalline Form", "setting": "[1]; 25°C/60%RH, day 7, XRPD", "result": "Unchanged"}, {"measurement": "Purity %", "setting": "[1]; 25°C/60%RH, day 7, open vial", "result": 98.24, "unit": "%"}, {"measurement": "Appearance", "setting": "[1]; 25°C/95±5%RH, day 3", "result": "Unchanged"}, {"measurement": "Crystalline Form", "setting": "[1]; 25°C/95±5%RH, day 3, XRPD", "result": "Unchanged"}, {"measurement": "Purity %", "setting": "[1]; 25°C/95±5%RH, day 3, open vial", "result": 98.17, "unit": "%"}, {"measurement": "Appearance", "setting": "[1]; 25°C/95±5%RH, day 7", "result": "Unchanged"}, {"measurement": "Crystalline Form", "setting": "[1]; 25°C/95±5%RH, day 7, XRPD", "result": "Unchanged"}, {"measurement": "Purity %", "setting": "[1]; 25°C/95±5%RH, day 7, open vial", "result": 98.20, "unit": "%"}, {"measurement": "Appearance", "setting": "[1]; 40°C/75%RH, day 3", "result": "Unchanged"}, {"measurement": "Crystalline Form", "setting": "[1]; 40°C/75%RH, day 3, XRPD", "result": "Unchanged"}, {"measurement": "Purity %", "setting": "[1]; 40°C/75%RH, day 3, open vial", "result": 98.17, "unit": "%"}, {"measurement": "Appearance", "setting": "[1]; 40°C/75%RH, day 7", "result": "Unchanged"}, {"measurement": "Crystalline Form", "setting": "[1]; 40°C/75%RH, day 7, XRPD", "result": "Unchanged"}, {"measurement": "Purity %", "setting": "[1]; 40°C/75%RH, day 7, open vial", "result": 98.16, "unit": "%"}, {"measurement": "Appearance", "setting": "[1]; 60 °C, day 3", "result": "Unchanged"}, {"measurement": "Crystalline Form", "setting": "[1]; 60 °C, day 3, XRPD", "result": "Unchanged"}, {"measurement": "Purity %", "setting": "[1]; 60 °C, day 3, open vial", "result": 98.15, "unit": "%"}, {"measurement": "Appearance", "setting": "[1]; 60 °C, day 7", "result": "Unchanged"}, {"measurement": "Crystalline Form", "setting": "[1]; 60 °C, day 7, XRPD", "result": "Unchanged"}, {"measurement": "Purity %", "setting": "[1]; 60 °C, day 7, open vial", "result": 98.12, "unit": "%"}, {"measurement": "Appearance", "setting": "[1]; 80 °C, day 1", "result": "Unchanged"}, {"measurement": "Crystalline Form", "setting": "[1]; 80 °C, day 1, XRPD", "result": "Unchanged"}, {"measurement": "Purity %", "setting": "[1]; 80 °C, day 1, open vial", "result": 98.38, "unit": "%"}, {"measurement": "Appearance", "setting": "[1]; 80 °C, day 3", "result": "Unchanged"}, {"measurement": "Crystalline Form", "setting": "[1]; 80 °C, day 3, XRPD", "result": "Unchanged"}, {"measurement": "Purity %", "setting": "[1]; 80 °C, day 3, open vial", "result": 98.24, "unit": "%"}, {"measurement": "Purity %", "setting": "[1]; [6]", "result": 98.50, "unit": "%"}, {"measurement": "Crystalline Form", "setting": "[1]; under all five storage conditions", "result": "remained unchanged"}, {"measurement": "solubility at 0.5 h", "setting": "[3]; fessif", "result": "> 5010", "unit": "µg/mL"}, {"measurement": "solubility at 2 h", "setting": "[3]; fessif", "result": "> 5010", "unit": "µg/mL"}, {"measurement": "solubility at 24 h", "setting": "[3]; fessif", "result": "> 5010", "unit": "µg/mL"}, {"measurement": "solubility at 0.5 h", "setting": "[3]; sgf", "result": "> 5000", "unit": "µg/mL"}, {"measurement": "solubility at 2 h", "setting": "[3]; sgf", "result": "> 5000", "unit": "µg/mL"}, {"measurement": "solubility at 24 h", "setting": "[3]; sgf", "result": "> 5000", "unit": "µg/mL"}, {"measurement": "in vivo exposure in rats compared with free base crystalline form I", "setting": "[4]", "result": "higher"}, {"measurement": "AUC0-last", "setting": "[4]; plasma, 30 mg/kg", "result": 1811.31, "unit": "ng·h/mL"}, {"measurement": "Cmax", "setting": "[4]; plasma, 30 mg/kg", "result": 222.5, "unit": "ng/mL"}, {"measurement": "T1/2", "setting": "[4]; plasma, 30 mg/kg", "result": 2.54, "unit": "h"}, {"measurement": "Tmax", "setting": "[4]; plasma, 30 mg/kg", "result": 3, "unit": "h"}, {"measurement": "Solubility", "setting": "[2]; FaSSIF, 0.5 h, 30 min", "result": ">5000", "unit": "µg/mL"}, {"measurement": "Solubility", "setting": "[2]; FaSSIF, 2 h, 120 min", "result": "> 5000", "unit": "µg/mL"}, {"measurement": "Solubility", "setting": "[2]; FaSSIF, 24 h, 1440 min", "result": 3410, "unit": "µg/mL"}, {"measurement": "Solubility", "setting": "[2]; H2O, 0.5 h, 30 min", "result": ">5000", "unit": "µg/mL"}, {"measurement": "Solubility", "setting": "[2]; H2O, 2 h, 120 min", "result": "> 5000", "unit": "µg/mL"}, {"measurement": "Solubility", "setting": "[2]; H2O, 24 h, 1440 min", "result": "> 5000", "unit": "µg/mL"}]}, {"smiles": "C=CC(=O)Nc1cc(Nc2ncc(C(=O)OC(C)C)c(-c3cn(C)c4ccccc34)n2)c(OC)cc1N(C)CCN(C)C", "note": "[TAK-788]", "values": [{"measurement": "objective response rate", "setting": "[5]", "result": 43, "unit": "%"}]}]}
